ChEMBL document CHEMBL4828735, “Discovery of N-((3S,4S)-4-(3,4-Difluorophenyl)piperidin-3-yl)-2-fluoro-4-(1-methyl-1H-pyrazol-5-yl)benzamide (Hu7691), a Potent and Selective Akt Inhibitor That Enables Decrease of Cutaneous Toxicity” (J Med Chem, 2021)
The source made the active and inactive calls. No cut-off for these calls is given here.

Key:
[1] = tested on: HaCaT; experiment: Antiproliferative activity against human HaCaT cells assessed as inhibition of cell growth incubated for 72 hrs by SRB assay; assay type: cell-based
[2] = tested on: U-87 MG; experiment: Antiproliferative activity against human U-87MG cells assessed as inhibition of cell growth incubated for 72 hrs by SRB method; assay type: functional, cell-based, U-87MG ATCC
[3] = AUC(0 to t) in Sprague-Dawley rat at 15 mg/kg, ig measured upto 72 hrs by LC-MS/MS analysis; assay type: ADME, organism-based; design: route […], dose 15 mg/kg, time <=72; conditions: in vivo, po
[4] = Toxicity in BALB/c nude mouse xenografted with human 786-0 cells assessed as change in body weight at 12.5 to 50 mg/kg, ig administered once daily for 22 days; assay type: organism-based; conditions: in vivo, po, 528 h, dose 12.5-50 mg/kg, time 22 day
[5] = Toxicity in BALB/c nude mouse xenografted with human KHOS cells assessed as change in body weight at 12.5 to 50 mg/kg, ig administered once daily for 22 days; assay type: organism-based; conditions: in vivo, po, 528 h, dose 12.5-50 mg/kg, time 22 day
[6] = Antiproliferative activity against human 95-D cells assessed as inhibition of cell growth incubated for 72 hrs by SRB method; assay type: functional, cell-based
[7] = AUC(0 to infinity) in Sprague-Dawley rat at 2 mg/kg, iv measured upto 24 hrs by LC-MS/MS analysis; assay type: ADME, organism-based; design: route intravenous, dose 2 mg/kg, time <=24; conditions: in vivo
[8] = AUC(0 to t) in Sprague-Dawley rat at 2 mg/kg, iv measured upto 24 hrs by LC-MS/MS analysis; assay type: ADME, organism-based; design: route intravenous, dose 2 mg/kg, time <=24; conditions: in vivo
[9] = tested on: L02; experiment: Antiproliferative activity against human HL7702 cells assessed as inhibition of cell growth incubated for 72 hrs by SRB method; assay type: cell-based; conditions: L02, 72 h
[10] = Toxicity in Sprague-Dawley rat assessed as effect on stomach at 25 to 75 mg/kg administered daily for 4 weeks by histopathological analysis; assay type: organism-based; conditions: in vivo, 672 h, dose 25-75 mg/kg
[11] = tested on: NCI-H1975; experiment: Antiproliferative activity against human NCI-H1975 cells assessed as inhibition of cell growth incubated for 72 hrs by SRB method; assay type: functional, cell-based; conditions: NCI-H1975, 72 h
[12] = Microsomal stability in human liver microsomes assessed as intrinsic clearance at 50 uM preincubated for 5 mins with NADPH followed by compound addition and measured upto 60 mins by LC-MS/MS analysis; assay type: ADME, Microsome; conditions: read-out: CLH
[13] = target: Cytochrome P450 1A2 (Homo sapiens, UniProt P05177); experiment: Inhibition of CYP1A2 (unknown origin); assay type: ADME
[14] = Drug metabolism in po dosed Sprague-Dawley rat urine assessed as M4 metabolite formation measured upto 72 hrs by UPLC-TOF-MS/MS analysis; assay type: ADME, organism-based; conditions: in vivo
[15] = Drug metabolism in po dosed Sprague-Dawley rat bile assessed as M4 metabolite formation measured upto 24 hrs by UPLC-TOF-MS/MS analysis; assay type: ADME, organism-based; conditions: in vivo
[16] = tested on: KHOS/NP; experiment: Antitumor activity against human KHOS cells xenografted in dosed BALB/c nude mouse assessed as tumor growth inhibition at 12.5 to 50 mg/kg, ig administered once daily for 22 days; assay type: functional; conditions: dose 12.5-50 mg/kg, time 22 day
[17] = tested on: HaCaT; experiment: Induction of apoptosis in human HaCaT cells assessed as cleaved caspase 3 level at 2.25 to 36 uM after 24 hrs by Western blot analysis; assay type: cell-based; conditions: dose 2.25-36 µM
[18] = target: Cytochrome P450 3A5 (Homo sapiens, UniProt P20815); experiment: Inhibition of CYP3A5 (unknown origin); assay type: ADME
[19] = Toxicity in Sprague-Dawley rat assessed as effect on jejunum at 25 to 75 mg/kg administered daily for 4 weeks by histopathological analysis; assay type: organism-based; conditions: in vivo, 672 h, dose 25-75 mg/kg
[20] = Toxicity in Sprague-Dawley rat assessed as appearance of skin lesions at 25 to 75 mg/kg administered daily for 4 weeks; assay type: organism-based; conditions: in vivo, 672 h, dose 25-75 mg/kg
[21] = Microsomal stability in mouse liver microsomes assessed as intrinsic clearance at 50 uM preincubated for 5 mins with NADPH followed by compound addition and measured upto 60 mins by LC-MS/MS analysis; assay type: ADME, Microsome; conditions: read-out: CLH
[22] = Toxicity in mouse assessed as prone posture at 150 mg/kg; assay type: organism-based; conditions: in vivo
[23] = AUC(0 to t) in Beagle dog at 20 mg/kg, ig measured upto 96 hrs by LC-MS/MS analysis; assay type: ADME, organism-based, Canis lupus familiaris; design: route […], dose 20 mg/kg, time <=96; conditions: in vivo, po
[24] = tested on: PC-3; experiment: Antiproliferative activity against human PC3 cells assessed as inhibition of cell growth incubated for 72 hrs by SRB method; assay type: functional, cell-based; conditions: PC-3, 72 h
[25] = Drug metabolism in po dosed Sprague-Dawley rat bile assessed as M5 metabolite formation measured upto 24 hrs by UPLC-TOF-MS/MS analysis; assay type: ADME, organism-based; conditions: in vivo
[26] = AUC(0 to infinity) in Beagle dog at 20 mg/kg, ig measured upto 96 hrs by LC-MS/MS analysis; assay type: ADME, organism-based, Canis lupus familiaris; design: route […], dose 20 mg/kg, time <=96; conditions: in vivo, po
[27] = Toxicity in mouse assessed as brownish watery stool at 150 mg/kg; assay type: organism-based; conditions: in vivo
[28] = Drug metabolism in po dosed Sprague-Dawley rat bile assessed as M1 metabolite formation measured upto 24 hrs by UPLC-TOF-MS/MS analysis; assay type: ADME, organism-based; conditions: in vivo
[29] = target: RAC-gamma serine/threonine-protein kinase (Homo sapiens, UniProt Q9Y243); experiment: Inhibition of AKT3 (unknown origin)
[30] = tested on: 769-P; experiment: Antiproliferative activity against human 769-P cells assessed as inhibition of cell growth incubated for 72 hrs by SRB method; assay type: functional, cell-based
[31] = Drug metabolism in po dosed Sprague-Dawley rat urine assessed as M1 metabolite formation measured upto 72 hrs by UPLC-TOF-MS/MS analysis; assay type: ADME, organism-based; conditions: in vivo
[32] = target: Cytochrome P450 3A4 (Homo sapiens, UniProt P08684); experiment: Inhibition of CYP3A4 (unknown origin); assay type: ADME
[33] = tested on: KHOS/NP; experiment: Antitumor activity against human KHOS cells xenografted in dosed BALB/c nude mouse assessed as tumor growth inhibition at 25 mg/kg, ig administered once daily for 22 days; assay type: functional, organism-based; conditions: time 22.0 day
[34] = Toxicity in mouse assessed as reduction in activity at 150 mg/kg; assay type: organism-based; conditions: in vivo
[35] = Drug metabolism in po dosed Sprague-Dawley rat feces assessed as M2 metabolite formation measured upto 24 hrs by UPLC-TOF-MS/MS analysis; assay type: ADME, organism-based; conditions: in vivo
[36] = tested on: SK-OV-3; experiment: Antiproliferative activity against human SK-OV-3 cells assessed as inhibition of cell growth incubated for 72 hrs by SRB method; assay type: functional, cell-based; conditions: SK-OV-3, 72 h
[37] = target: Ribosomal protein S6 kinase beta-1 (Homo sapiens, UniProt P23443); experiment: Inhibition of P70S6K (unknown origin)
[38] = Microsomal stability in monkey liver microsomes assessed as intrinsic clearance at 50 uM preincubated for 5 mins with NADPH followed by compound addition and measured upto 60 mins by LC-MS/MS analysis; assay type: ADME, Macaca mulatta, Microsome; conditions: rhesus monkey, read-out: CLH
[39] = tested on: HepG2; experiment: Antiproliferative activity against human HepG2 cells assessed as inhibition of cell growth incubated for 72 hrs by SRB method; assay type: functional, cell-based; conditions: HepG2, 72 h
[40] = Drug metabolism in po dosed Sprague-Dawley rat bile assessed as M3 metabolite formation measured upto 24 hrs by UPLC-TOF-MS/MS analysis; assay type: ADME, organism-based; conditions: in vivo
[41] = target: Ribosomal protein S6 kinase alpha-1 (Homo sapiens, UniProt Q15418); experiment: Inhibition of RSK1 (unknown origin)
[42] = tested on: KHOS/NP; experiment: Antitumor activity against human KHOS cells xenografted in ig dosed BALB/c nude mouse assessed as tumor growth inhibition administered once daily for 22 days; assay type: functional, organism-based; conditions: dose 12.5-50 mg/kg, time 22.0 day

Cytochrome P450 3A5, sequence (P20815 whole entry): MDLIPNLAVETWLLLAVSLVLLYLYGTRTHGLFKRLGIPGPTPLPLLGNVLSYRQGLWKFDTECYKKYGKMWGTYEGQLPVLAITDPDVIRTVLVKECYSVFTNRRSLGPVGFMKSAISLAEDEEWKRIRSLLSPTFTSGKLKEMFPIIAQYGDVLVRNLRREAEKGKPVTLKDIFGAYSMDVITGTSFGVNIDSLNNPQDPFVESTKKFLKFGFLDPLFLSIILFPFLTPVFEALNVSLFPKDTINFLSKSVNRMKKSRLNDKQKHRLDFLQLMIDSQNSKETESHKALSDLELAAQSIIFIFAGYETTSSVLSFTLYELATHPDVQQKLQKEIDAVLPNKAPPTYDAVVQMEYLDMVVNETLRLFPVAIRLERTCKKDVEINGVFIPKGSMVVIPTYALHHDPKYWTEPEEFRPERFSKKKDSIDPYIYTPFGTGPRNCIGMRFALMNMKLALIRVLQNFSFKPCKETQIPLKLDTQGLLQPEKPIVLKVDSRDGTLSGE
RAC-gamma serine/threonine-protein kinase, sequence (Q9Y243 whole entry): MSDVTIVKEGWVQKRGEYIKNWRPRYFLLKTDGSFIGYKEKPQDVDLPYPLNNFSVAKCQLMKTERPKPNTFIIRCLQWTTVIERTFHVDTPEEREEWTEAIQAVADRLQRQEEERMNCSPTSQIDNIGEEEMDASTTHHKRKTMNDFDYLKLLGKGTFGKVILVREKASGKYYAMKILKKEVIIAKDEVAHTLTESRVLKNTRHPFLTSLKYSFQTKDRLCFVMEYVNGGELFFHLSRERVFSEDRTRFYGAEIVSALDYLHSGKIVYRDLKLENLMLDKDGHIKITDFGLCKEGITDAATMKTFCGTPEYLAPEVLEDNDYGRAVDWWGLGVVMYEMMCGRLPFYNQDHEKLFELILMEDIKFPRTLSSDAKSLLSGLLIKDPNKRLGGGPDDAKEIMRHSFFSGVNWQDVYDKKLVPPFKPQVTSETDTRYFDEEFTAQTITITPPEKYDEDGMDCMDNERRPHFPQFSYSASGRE
Cytochrome P450 3A4, sequence (P08684 whole entry): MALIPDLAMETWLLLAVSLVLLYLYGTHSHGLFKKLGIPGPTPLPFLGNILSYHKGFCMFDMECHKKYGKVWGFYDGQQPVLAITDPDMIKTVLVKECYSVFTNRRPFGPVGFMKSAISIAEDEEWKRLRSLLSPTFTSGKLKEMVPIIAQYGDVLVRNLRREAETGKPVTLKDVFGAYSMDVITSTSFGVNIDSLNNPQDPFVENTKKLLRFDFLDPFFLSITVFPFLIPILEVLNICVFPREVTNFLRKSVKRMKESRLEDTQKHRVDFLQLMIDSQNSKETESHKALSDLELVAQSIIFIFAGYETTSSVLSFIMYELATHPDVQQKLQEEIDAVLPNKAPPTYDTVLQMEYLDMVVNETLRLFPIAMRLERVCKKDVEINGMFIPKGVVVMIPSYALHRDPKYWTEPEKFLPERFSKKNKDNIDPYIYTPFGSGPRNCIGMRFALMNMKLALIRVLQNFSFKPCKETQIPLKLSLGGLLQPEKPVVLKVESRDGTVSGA
Cytochrome P450 1A2, sequence (P05177 whole entry): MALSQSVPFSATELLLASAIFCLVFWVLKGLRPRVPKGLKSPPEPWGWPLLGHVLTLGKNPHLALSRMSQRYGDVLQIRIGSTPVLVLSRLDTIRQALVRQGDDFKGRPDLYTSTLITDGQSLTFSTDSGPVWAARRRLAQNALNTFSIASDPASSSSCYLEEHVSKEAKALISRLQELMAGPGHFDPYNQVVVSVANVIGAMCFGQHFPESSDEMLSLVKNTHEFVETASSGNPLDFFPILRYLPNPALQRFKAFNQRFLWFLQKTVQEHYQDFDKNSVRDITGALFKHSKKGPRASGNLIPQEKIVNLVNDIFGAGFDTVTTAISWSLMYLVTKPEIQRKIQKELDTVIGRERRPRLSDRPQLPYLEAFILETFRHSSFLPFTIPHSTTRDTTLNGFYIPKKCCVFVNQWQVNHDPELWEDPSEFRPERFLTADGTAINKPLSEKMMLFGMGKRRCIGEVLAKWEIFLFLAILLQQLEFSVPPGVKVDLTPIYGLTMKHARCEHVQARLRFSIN
Ribosomal protein S6 kinase beta-1, sequence (P23443 whole entry): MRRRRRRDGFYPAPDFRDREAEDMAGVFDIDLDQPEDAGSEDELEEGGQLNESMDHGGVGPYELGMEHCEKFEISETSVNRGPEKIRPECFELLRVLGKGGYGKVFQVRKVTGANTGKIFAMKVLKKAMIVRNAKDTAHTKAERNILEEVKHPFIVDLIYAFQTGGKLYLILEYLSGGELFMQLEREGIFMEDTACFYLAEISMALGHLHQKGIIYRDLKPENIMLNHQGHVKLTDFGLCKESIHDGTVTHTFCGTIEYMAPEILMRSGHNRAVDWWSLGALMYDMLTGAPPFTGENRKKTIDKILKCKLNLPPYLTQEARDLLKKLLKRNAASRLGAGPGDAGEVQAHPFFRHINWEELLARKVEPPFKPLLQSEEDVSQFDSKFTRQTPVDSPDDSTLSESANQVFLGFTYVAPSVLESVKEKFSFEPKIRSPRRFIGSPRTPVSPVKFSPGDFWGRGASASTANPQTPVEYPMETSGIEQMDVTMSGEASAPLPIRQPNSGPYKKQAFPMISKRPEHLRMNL
Ribosomal protein S6 kinase alpha-1, sequence (Q15418 whole entry): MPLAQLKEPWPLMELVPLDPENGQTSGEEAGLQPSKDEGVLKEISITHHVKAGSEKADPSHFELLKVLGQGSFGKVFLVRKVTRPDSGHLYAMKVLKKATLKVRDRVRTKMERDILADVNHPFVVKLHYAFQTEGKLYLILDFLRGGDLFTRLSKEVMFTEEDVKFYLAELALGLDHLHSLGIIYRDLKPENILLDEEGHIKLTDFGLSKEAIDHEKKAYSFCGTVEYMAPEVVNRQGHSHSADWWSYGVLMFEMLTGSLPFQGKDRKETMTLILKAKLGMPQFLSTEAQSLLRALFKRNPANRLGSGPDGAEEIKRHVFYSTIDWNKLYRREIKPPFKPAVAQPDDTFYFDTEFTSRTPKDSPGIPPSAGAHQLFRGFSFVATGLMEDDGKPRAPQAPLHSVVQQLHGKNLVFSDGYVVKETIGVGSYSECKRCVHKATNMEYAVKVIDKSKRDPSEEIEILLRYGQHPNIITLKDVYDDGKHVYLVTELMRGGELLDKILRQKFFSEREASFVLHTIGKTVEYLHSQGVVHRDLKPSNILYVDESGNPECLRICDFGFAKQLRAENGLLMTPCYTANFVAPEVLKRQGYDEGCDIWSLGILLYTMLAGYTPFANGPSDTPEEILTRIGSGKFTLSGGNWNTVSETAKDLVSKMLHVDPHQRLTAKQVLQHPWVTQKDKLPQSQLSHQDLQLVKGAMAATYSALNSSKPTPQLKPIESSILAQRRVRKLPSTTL

Cl.Cn1nccc1-c1ccc(C(=O)N[C@@H]2CNCC[C@H]2c2ccc(F)c(F)c2)c(F)c1
IC50 [1]: 15.2 µM | IC50 [2]: 9.26 µM | AUC(0-t) at 72 h [3]: 2.28 µg·h/mL | Activity [4]: Non-Toxic | Activity [5]: Non-Toxic | IC50 [6]: 1.03 µM | AUC(0-inf) [7]: 0.533 µg·h/mL | AUC(0-t) at 24 h [8]: 0.459 µg·h/mL | IC50 [9]: 5.4 µM | Activity [10]: Non-Toxic | IC50 [11]: 7.56 µM | microsomal CLint at 50 µM [12]: 1.4 µL/min/mg | IC50 [13]: > 100 µM | Drug metabolism [14]: Metabolite_Detected | Drug metabolism [15]: Metabolite_Detected | TGI [16]: 55.7% | Activity [17]: Non-Toxic | IC50 [18]: > 100 µM | Activity [19]: Non-Toxic | Activity [20]: Non-Toxic | microsomal CLint at 50 µM [21]: 3.4 µL/min/mg | Activity [22]: Toxic | AUC(0-t) at 96 h [23]: 33.3 µg·h/mL | IC50 [24]: 8.74 µM | Drug metabolism [25]: Metabolite_Detected | AUC(0-inf) [26]: 36.3 µg·h/mL | Activity [27]: Toxic | Drug metabolism [28]: Metabolite_Detected | IC50 [29]: 0.028 µM | IC50 [30]: 7.76 µM | Drug metabolism [31]: Metabolite_Detected | IC50 [32]: > 100 µM | Activity [33]: Active | Activity [34]: Toxic | Drug metabolism [35]: Metabolite_Detected | IC50 [36]: 4.71 µM | IC50 [37]: 0.229 µM | microsomal CLint at 50 µM [38]: 13.6 µL/min/mg | IC50 [39]: 3.6 µM | Drug metabolism [40]: Metabolite_Detected | IC50 [41]: 0.756 µM | Activity [42]: Dose-Dependent Effect
